The source of these data is article PMC9611166, “Cocrystal Prediction of Bexarotene by Graph Convolution Network and Bioavailability Improvement” (Pharmaceutics, 2022).

Series [1] in a line: Equilibrium solubility in buffer solutions with 0.05% CTAB. The following applies: for solubility thermodynamic at 1 day: buffer solution with 0.05% CTAB, aqueous with cosolvent or surfactant or cyclodextrin, thermodynamic from solid, 0.05% CTAB, 37 °C, one day. It is filed as physicochemical. The method, then: (§1) The concentration of BEX samples was detected by the Agilent 1260 Series Infinite HPLC. The Eclipse XDB-C18 column (4.6 × 150 mm, 5 μm) was used to separate the analytes. The column temperature was set at 30 °C and the injection volume was 10 μL. The mobile phase was composed of 0.1% trifluoroacetic acid in water and acetonitrile (10:90, v/v) pumped at 1.0 mL/min. The 260 nm was set as the UV-vis detection wavelength.
Excess amounts (10 mg) of BEX and four cocrystals samples were added to the 4 mL of pH 2.0, 4.5, and 6.8 buffer solutions respectively, with the presence of 0.05% CTAB (hexadecyl trimethyl ammonium bromide). Then the saturated solutions were stirred at 300 rpm for one day at 37 °C. The equilibrium solubility of BEX was determined by HPLC after filtering the solutions.

On the set-up of series [2]: method as in PMID 24333772. To be noted: cited from earlier work.
The nature of series [3]: Powder dissolution at pH 6.8 with 0.05% CTAB. It is filed as physicochemical. The method, then:
as §1
The solid samples of BEX and four cocrystals were sieved through 100-mesh sieves. In total, 20 mg of BEX and corresponding cocrystal powders (n = 3) were added to pH 6.8 phosphate buffer with the presence of 0.05% CTAB at 37 °C, rotating at 100 rpm. The samples were collected at 5, 10, 15, 20, 30, 40, 50, and 60 min. The concentration was measured by HPLC.

A short description of series [4]: Pharmacokinetics in rats. The format is in vivo. The following applies: male, Sprague-Dawley, rat, plasma, po, 10 mg/kg BEX, 0.5% CMC-Na suspension, mean ± SD. The method, then: The PK studies were performed according to the Guide for Care and Use of Laboratory Animals and were approved by the Institutional Animal Care and Use Committee of Shanghai Institute of Materia Medica. There were two groups of male Sprague−Dawley rats and the number of rats is six in each group. […] The dose is 10 mg/kg BEX. The animals had free access to water and fasted overnight before dosing. After the administration, the 600 μL blood sample was collected at 0.5, 1, 2, 3, 4, 6, and 8 h. Plasma was separated by centrifugation (14,000 rpm, 10 min) and stored at −80 °C. In total, 200 μL of rat plasma sample was mixed with 600 μL acetonitrile through a vortex mixer for 20 min and centrifuged for 5 min (14,000 rpm). The BEX concentration was measured by the SCIEX Triple Quad™ 4500 LC-MS instrument. The analytes were separated by the Supelco Ascentis Express C18 column (2.1 × 50 mm, 2.7 μm). The column temperature was set at 35 °C. The mobile phase was composed of 0.2% formic acid in water (solvent A) and acetonitrile (solvent B) pumped at 0.6 mL/min. The gradient elution program started with 55% B and increased linearly to 90% B at 1.5 min and held for 0.5 min. It returned to the 55% B at the 3 min and held for 2 min. The injection volume was 10 μL, and the UV-vis detection wavelength was set at 260 nm. The negative ion detection mode was operated in the mass spectrometer. Multiple reaction monitoring modes (MRM) was used to perform the detection and quantification, with m/z 347.3→303.0 for BEX. The DAS 2.0 program was used to perform the PK analysis.

SMILES strings stand for the structures. Converted amounts (≈) assume the structure as drawn.

By thermodynamic solubility is commonly meant solubility found after equilibrating the solid with the medium. By solubility is commonly meant the concentration that dissolves in the medium under given conditions. By AUC(0-inf) is commonly meant the area under the concentration-time curve extrapolated to infinity. A higher AUC(0-inf) goes with more exposure. One may read the Cmax as the peak of the concentration-time curve. The half-life is the time needed for the level to fall by half in the phase considered. Low values mean fast loss, high ones slow loss. Regarding `C=C(c1ccc(C(=O)O)cc1)c1cc2c(cc1C)C(C)(C)CCC2(C)C` [BEX, Bexarotene], the solubility (thermodynamic) at 1 day in series [1] (pH 2.0 buffer) was less than 10 µg/mL; in series [1] (pH 4.5 buffer), more than 10 µg/mL; in series [1] (pH 6.8 buffer) it was approximately 30 µg/mL (≈ 86.1 µM). Further, the “pH value of solution after equilibrium solubility experiment” value in series [1] (starting buffer pH 2.00, n = 3) is given as 2.06 ± 0.01; in series [1] (starting buffer pH 4.50, n = 3), 4.58 ± 0.01; in series [1] (starting buffer pH 6.80, n = 3), 6.82 ± 0.02. The absolute bioavailability entry in series [2] was “less than 20%”. Besides, the “pH value of solution after powder dissolution” value in series [3] (pH 6.8, n = 3) amounted to 6.81 ± 0.01. For the same molecule, the solubility at 60 min in series [3] (phosphate buffer with 0.05% CTAB, aqueous with cosolvent or surfactant or cyclodextrin, thermodynamic from solid, pH 6.8 phosphate buffer, 0.05% CTAB, 37 °C, 60 min, read-out: measured solubility in powder dissolution after 60 min) was approximately 30 µg/mL (≈ 86.1 µM). In addition, the area under the curve AUC(0-inf) in series [4] came out at 8790 ± 1080 ng·h/mL. The molecule further came in with a Cmax in series [4] of 1680 ± 559 ng/mL. In addition, in series [4], the half-life is 2.98 ± 1.18 h. In series [4] (read-out: AUC0−8h), the AUC(0-t) came to 7220 ± 811 ng·h/mL.
